Test results as given in US20070155746A1, “NOVEL SUBSTITUTED PYRIDINYLOXY AND PYRIMIDINYLOXY AMIDES USEFUL AS INHIBITORS OF PROTEIN KINASES” (KALYPSYS, INC., priority 2005, published 2007).

Tests used:
Type in all cases: biochemical
[1] = target: T1, human B-Raf protein kinase (Homo sapiens, UniProt P15056); assay: In vitro B-Raf/Mek1 composite kinase assay
T1 construct: GST (N); purchased Upstate Inc. 14-530 (B-Raf); 14-420 (Mek1)
Protocol: In Vitro B-Raf/Mek1 Composite Kinase Assay
2.5 μl of B-Raf kinase buffer (20 mM MOPS [pH 7.2], 25 mM sodium glycerophosphate, 2 mM EGTA [pH 8.0], 1 mM sodium orthovanadate, 1 mM dithiothreitol, 10 mM MgCl2, 0.03% Brij-35, 0.3 mg/ml bovine serum albumin) containing lng of recombinant, N-terminal GST-tagged human B-Raf protein kinase (Δ1-415, Upstate Inc., cat. #14-530) is dispensed to wells of a 1536 multi-well white solid plate. 60 nl of 100× concentration of test compound in DMSO is dispensed to the well by passive pin transfer and incubated for 15 minutes at room temperature (approx. 22° C.). […] The assay plates are sealed and maintained in a humidified environment. After 2 hours, 2.5 μl of PKLight protein kinase assay reagent (Cambrex, cat. #LT07-501) is dispensed. After an additional 5 minute incubation at room temperature, luminescence activity is measured on a Molecular Devices Analyst multi-mode plate reader or other suitable plate reader. Kinase inhibition results in less ATP depletion, and therefore increased luminescence signal. Negative control activity is measured with DMSO lacking any test compound. The positive control is [N-(3-trifluoromethyl-4-chlorophenyl)-N′-(4-(2-methylcarbamoyl-pyridin-4-yl)oxyphenyl)urea], aka Bay 43-9006. Efficacy is measured as a percentage of positive control activity.

VEGFR2 kinase = target: T2, VEGFR2 kinase (Homo sapiens, UniProt P35968); assay: In vitro VEGFR2 kinase assay
T2 construct: purchased Invitrogen Inc PV3660
Protocol: (§1) In Vitro VEGFR2 and PDGFRP Kinase Assays
(§2) 2.5 μl of ADP Quest assay buffer (DiscoverX Inc., cat. #90-0071) containing 20 ng VEGFR2 kinase (Invitrogen Inc, cat. #PV3660) or 25 ng PDGFRβ kinase (Invitrogen Inc., cat. #P3082) is dispensed to wells of a 1536 multi-well, black solid plate. 60 nl of 100× concentration of test compound in DMSO is dispensed to the well by passive pin transfer and incubated for 10 minutes at room temperature (approx. 22° C.). 2.5 μl of ADP Quest assay buffer containing 0.25 μg of poly Glu:Tyr (4:1) substrate peptide (Upstate Inc., cat. #12-440) and 60 μM ATP is then dispensed and the kinase reaction allowed to incubate at 30° C. for 2 hours. The assay plates are sealed and maintained in a humidified environment. After the 2 hour incubation, 2 μl of ADP Quest assay reagent A, followed by 2 μl of assay reagent B, is added. After an additional 30 minute incubation at room temperature, fluorescence intensity is measured on a Molecular Devices Aquest multi-mode plate reader or other suitable plate reader (fluorescence excitation filter: 530/25 [Peak(nm)/FWHM passband(nm)]; dichroic beamsplitter: 561 nm longpass; fluorescence emission filter: 580/10 [Peak(nm)/FWHM passband(nm)]. The assay measures the conversion of a non-fluoresecent molecule to fluorescent resorufin, which correlates with kinase activity. Negative control activity is measured with DMSO lacking any test compound. The positive control is [N-(3-trifluoromethyl-4-chlorophenyl)-N′-(4-(2-methylcarbamoyl-pyridin-4-yl)oxyphenyl)urea], aka Bay 43-9006. Efficacy is measured as a percentage of positive control activity.

PDGFRβ kinase = target: T3, PDGFRβ kinase (Homo sapiens, UniProt P09619); assay: In vitro PDGFRβ kinase assay
T3 construct: purchased Invitrogen Inc. P3082
Protocol: as §1, §2

T2 sequence (P35968 20-1356): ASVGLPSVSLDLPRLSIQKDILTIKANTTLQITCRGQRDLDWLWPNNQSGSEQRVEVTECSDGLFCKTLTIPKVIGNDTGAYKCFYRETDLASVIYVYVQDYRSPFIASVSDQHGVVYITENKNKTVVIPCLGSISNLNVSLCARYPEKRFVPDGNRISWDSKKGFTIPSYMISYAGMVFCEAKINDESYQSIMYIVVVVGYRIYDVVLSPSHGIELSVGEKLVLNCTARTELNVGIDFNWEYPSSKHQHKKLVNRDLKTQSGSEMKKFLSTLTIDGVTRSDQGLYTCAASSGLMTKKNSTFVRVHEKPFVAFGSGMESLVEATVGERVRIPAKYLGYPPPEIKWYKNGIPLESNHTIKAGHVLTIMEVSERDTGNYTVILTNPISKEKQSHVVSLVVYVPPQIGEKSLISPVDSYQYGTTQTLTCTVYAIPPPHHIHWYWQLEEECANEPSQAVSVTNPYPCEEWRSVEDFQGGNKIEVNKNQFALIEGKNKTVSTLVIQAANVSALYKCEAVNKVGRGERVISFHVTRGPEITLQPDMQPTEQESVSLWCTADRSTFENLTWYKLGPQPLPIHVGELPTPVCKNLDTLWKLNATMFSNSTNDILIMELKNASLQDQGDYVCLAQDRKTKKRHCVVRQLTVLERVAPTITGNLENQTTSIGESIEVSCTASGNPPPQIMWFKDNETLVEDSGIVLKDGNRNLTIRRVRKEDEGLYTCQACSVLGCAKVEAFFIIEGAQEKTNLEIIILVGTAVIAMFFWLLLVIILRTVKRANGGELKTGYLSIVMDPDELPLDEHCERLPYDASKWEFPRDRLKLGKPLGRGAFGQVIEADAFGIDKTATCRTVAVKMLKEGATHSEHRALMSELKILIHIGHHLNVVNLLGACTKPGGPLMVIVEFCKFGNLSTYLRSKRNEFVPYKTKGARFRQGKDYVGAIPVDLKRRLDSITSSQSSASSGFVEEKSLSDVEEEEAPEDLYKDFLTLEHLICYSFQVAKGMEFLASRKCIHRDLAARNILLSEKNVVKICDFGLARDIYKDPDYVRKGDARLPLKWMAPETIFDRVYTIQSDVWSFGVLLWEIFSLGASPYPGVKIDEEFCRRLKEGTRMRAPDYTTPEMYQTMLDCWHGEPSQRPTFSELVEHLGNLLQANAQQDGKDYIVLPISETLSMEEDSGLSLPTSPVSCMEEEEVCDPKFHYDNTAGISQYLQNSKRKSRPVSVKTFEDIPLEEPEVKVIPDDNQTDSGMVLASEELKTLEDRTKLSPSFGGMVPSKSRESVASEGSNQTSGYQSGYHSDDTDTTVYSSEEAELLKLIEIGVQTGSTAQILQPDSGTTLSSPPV
T3 sequence (P09619 33-1106): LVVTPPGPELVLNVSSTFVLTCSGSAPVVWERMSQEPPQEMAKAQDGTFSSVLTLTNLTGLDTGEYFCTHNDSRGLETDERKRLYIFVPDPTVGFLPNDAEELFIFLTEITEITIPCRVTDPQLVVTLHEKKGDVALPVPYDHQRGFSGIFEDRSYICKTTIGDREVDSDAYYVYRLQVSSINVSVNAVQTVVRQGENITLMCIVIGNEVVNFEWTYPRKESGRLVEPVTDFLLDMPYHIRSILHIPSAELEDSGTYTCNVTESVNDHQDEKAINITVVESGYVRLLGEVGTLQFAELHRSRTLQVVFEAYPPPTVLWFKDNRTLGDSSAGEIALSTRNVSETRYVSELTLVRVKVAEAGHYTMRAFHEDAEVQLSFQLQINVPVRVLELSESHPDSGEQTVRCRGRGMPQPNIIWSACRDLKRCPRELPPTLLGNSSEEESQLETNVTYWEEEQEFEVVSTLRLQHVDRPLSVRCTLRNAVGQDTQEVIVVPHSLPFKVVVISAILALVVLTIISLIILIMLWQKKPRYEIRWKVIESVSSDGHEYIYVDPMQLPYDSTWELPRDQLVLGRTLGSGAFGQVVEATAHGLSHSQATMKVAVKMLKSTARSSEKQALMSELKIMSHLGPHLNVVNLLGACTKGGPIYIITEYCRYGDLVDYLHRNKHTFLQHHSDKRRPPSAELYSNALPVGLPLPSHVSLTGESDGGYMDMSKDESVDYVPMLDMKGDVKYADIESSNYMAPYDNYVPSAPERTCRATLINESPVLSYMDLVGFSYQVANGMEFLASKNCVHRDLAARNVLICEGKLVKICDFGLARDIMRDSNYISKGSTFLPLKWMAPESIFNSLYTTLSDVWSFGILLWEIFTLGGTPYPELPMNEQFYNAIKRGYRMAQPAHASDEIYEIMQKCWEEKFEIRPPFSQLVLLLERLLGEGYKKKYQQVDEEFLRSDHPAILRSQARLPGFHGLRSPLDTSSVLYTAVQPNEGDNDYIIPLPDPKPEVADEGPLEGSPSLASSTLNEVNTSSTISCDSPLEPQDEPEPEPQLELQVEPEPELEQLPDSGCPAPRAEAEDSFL
T1 sequence (P15056 416-766): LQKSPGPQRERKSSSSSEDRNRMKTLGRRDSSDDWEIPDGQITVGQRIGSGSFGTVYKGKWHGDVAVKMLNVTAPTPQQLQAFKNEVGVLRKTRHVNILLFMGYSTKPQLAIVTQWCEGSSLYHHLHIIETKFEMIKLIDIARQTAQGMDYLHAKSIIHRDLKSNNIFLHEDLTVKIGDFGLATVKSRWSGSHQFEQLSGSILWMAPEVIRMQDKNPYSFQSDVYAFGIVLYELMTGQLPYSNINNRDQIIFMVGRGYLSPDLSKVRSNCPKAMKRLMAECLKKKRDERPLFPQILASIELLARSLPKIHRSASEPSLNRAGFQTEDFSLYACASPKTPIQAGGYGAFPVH

Row | IC50 [1] | IC50 (VEGFR2 kinase) | IC50 (PDGFRβ kinase) | SMILES
1 | ≤ 10 µM | > 10 µM | ≤ 10 µM | Cn1cc(-c2cc(Oc3cccc(NC(=O)c4ccccc4Oc4ccccc4)c3)ccn2)cn1 [Example 54, N-(3-(2-(1-Methyl-1H-pyrazol-4-yl)pyridin-4-yloxy)phenyl)-2-phenoxybenzamide]
2 | > 10 µM | ≤ 10 µM | > 10 µM | Cn1cc(-c2cc(Oc3cccc(NC(=O)c4cccc(Oc5ccccc5)c4)c3)ccn2)cn1 [Example 55, N-(3-(2-(1-Methyl-1H-pyrazol-4-yl)pyridin-4-yloxy)phenyl)-3-phenoxybenzamide]
3 | > 10 µM | > 10 µM | > 10 µM | Cn1cc(-c2cc(Oc3cccc(NC(=O)c4cccc(-n5cccc5)c4)c3)ccn2)cn1 [Example 58, N-(3-(2-(1-Methyl-1H-pyrazol-4-yl)pyridin-4-yloxy)phenyl)-3-(1H-pyrrol-1-yl)benzamide]
4 | ≤ 10 µM | > 10 µM | > 10 µM | Cn1cc(-c2cc(Oc3cccc(NC(=O)c4ccc(-n5cccc5)cc4)c3)ccn2)cn1 [Example 59, N-(3-(2-(1-Methyl-1H-pyrazol-4-yl)pyridin-4-yloxy)phenyl)-4-(1H-pyrrol-1-yl)benzamide]
5 | > 10 µM | > 10 µM | > 10 µM | Cn1cc(-c2cc(Oc3cccc(NC(=O)c4ccc5c(c4)OC(F)(F)O5)c3)ccn2)cn1 [Example 62, 2,2-Difluoro-N-(3-(2-(1-methyl-1H-pyrazol-4-yl)pyridin-4-yloxy)phenyl)benzo[d][1,3]dioxole-5-carboxamide]
6 | ≤ 10 µM | > 10 µM | ≤ 10 µM | Cn1cc(-c2cc(Oc3cccc(NC(=O)c4ccc5c(c4)C(=O)OC5=O)c3)ccn2)cn1 [Example 63, N-(3-(2-(1-Methyl-1H-pyrazol-4-yl)pyridin-4-yloxy)phenyl)-1,3-dioxo-1,3-dihydroisobenzofuran-5-carboxamide]
7 | ≤ 10 µM | ≤ 10 µM | > 10 µM | Cn1cc(-c2cc(Oc3cccc(NC(=O)c4ccc5[nH]cnc5c4)c3)ccn2)cn1 [Example 64, N-(3-(2-(1-Methyl-1H-pyrazol-4-yl)pyridin-4-yloxy)phenyl)-1H-benzo[d]imidazole-5-carboxamide]
8 | > 10 µM | > 10 µM | > 10 µM | Cn1cc(-c2cc(Oc3cccc(NC(=O)c4ccc5c(c4)CCO5)c3)ccn2)cn1 [Example 67, N-(3-(2-(1-Methyl-1H-pyrazol-4-yl)pyridin-4-yloxy)phenyl)-2,3-dihydrobenzofuran-5-carboxamide]
9 | ≤ 10 µM | ≤ 10 µM | > 10 µM | Cn1cc(-c2cc(Oc3cccc(NC(=O)c4cccc5[nH]ccc45)c3)ccn2)cn1 [Example 69, N-(3-(2-(1-Methyl-1H-pyrazol-4-yl)pyridin-4-yloxy)phenyl)-1H-indole-4-carboxamide]
10 | ≤ 10 µM | ≤ 10 µM | > 10 µM | Cn1cc(-c2cc(Oc3cccc(NC(=O)c4ccc5[nH]ccc5c4)c3)ccn2)cn1 [Example 70, N-(3-(2-(1-Methyl-1H-pyrazol-4-yl)pyridin-4-yloxy)phenyl)-1H-indole-5-carboxamide]
11 | ≤ 10 µM | > 10 µM | > 10 µM | Cn1cc(-c2cc(Oc3cccc(NC(=O)c4cccc5cc[nH]c45)c3)ccn2)cn1 [Example 71, N-(3-(2-(1-Methyl-1H-pyrazol-4-yl)pyridin-4-yloxy)phenyl)-1H-indole-7-carboxamide]
12 | ≤ 10 µM | ≤ 10 µM | ≤ 10 µM | CCOc1cccc(C(=O)Nc2cccc(Oc3ccnc(-c4cnn(C)c4)c3)c2)c1 [Example 72, 3-Ethoxy-N-(3-(2-(1-methyl-1H-pyrazol-4-yl)pyridin-4-yloxy)phenyl)benzamide]
13 | ≤ 10 µM | > 10 µM | > 10 µM | CC(C)Oc1ccc(C(=O)Nc2cccc(Oc3ccnc(-c4cnn(C)c4)c3)c2)cc1 [Example 75, 4-Isopropoxy-N-(3-(2-(1-methyl-1H-pyrazol-4-yl)pyridin-4-yloxy)phenyl)benzamide]

The remaining lines, values behind:

Row | SMILES | IC50 [1] | IC50 (VEGFR2 kinase) | IC50 (PDGFRβ kinase)
14 | Cn1cc(-c2cc(Oc3cccc(NC(=O)c4ccc(Oc5ccccc5)cc4)c3)ccn2)cn1 [Example 56, N-(3-(2-(1-Methyl-1H-pyrazol-4-yl)pyridin-4-yloxy)phenyl)-4-phenoxybenzamide] | ≤ 10 µM | ≤ 10 µM | > 10 µM
15 | Cn1cc(-c2cc(Oc3cccc(NC(=O)c4ccccc4-n4cccc4)c3)ccn2)cn1 [Example 57, N-(3-(2-(1-Methyl-1H-pyrazol-4-yl)pyridin-4-yloxy)phenyl)-2-(1H-pyrrol-1-yl)benzamide] | ≤ 10 µM | ≤ 10 µM | ≤ 10 µM
16 | Cn1cc(-c2cc(Oc3cccc(NC(=O)c4ccc(-n5ccnc5)cc4)c3)ccn2)cn1 [Example 60, 4-(1H-Imidazol-1-yl)-N-(3-(2-(1-methyl-1H-pyrazol-4-yl)pyridin-4-yloxy)phenyl)benzamide] | ≤ 10 µM | > 10 µM | > 10 µM
17 | Cn1cc(-c2cc(Oc3cccc(NC(=O)c4ccc5c(c4)OCO5)c3)ccn2)cn1 [Example 61, N-(3-(2-(1-Methyl-1H-pyrazol-4-yl)pyridin-4-yloxy)phenyl)benzo[d][1,3]dioxole-5-carboxamide] | ≤ 10 µM | > 10 µM | > 10 µM
18 | Cn1cc(-c2cc(Oc3cccc(NC(=O)c4ccc5[nH]nnc5c4)c3)ccn2)cn1 [Example 65, N-(3-(2-(1-Methyl-1H-pyrazol-4-yl)pyridin-4-yloxy)phenyl)-1H-benzo[d][1,2,3]triazole-5-carboxamide] | ≤ 10 µM | ≤ 10 µM | > 10 µM
19 | Cn1cc(-c2cc(Oc3cccc(NC(=O)c4ccc5occc5c4)c3)ccn2)cn1 [Example 66, N-(3-(2-(1-Methyl-1H-pyrazol-4-yl)pyridin-4-yloxy)phenyl)benzofuran-5-carboxamide] | > 10 µM | > 10 µM | > 10 µM
20 | Cn1cc(-c2cc(Oc3cccc(NC(=O)c4cccc5c4OCC5)c3)ccn2)cn1 [Example 68, N-(3-(2-(1-Methyl-1H-pyrazol-4-yl)pyridin-4-yloxy)phenyl)-2,3-dihydrobenzofuran-7-carboxamide] | ≤ 10 µM | > 10 µM | > 10 µM
21 | CCCOc1cccc(C(=O)Nc2cccc(Oc3ccnc(-c4cnn(C)c4)c3)c2)c1 [Example 73, N-(3-(2-(1-Methyl-1H-pyrazol-4-yl)pyridin-4-yloxy)phenyl)-3-propoxybenzamide] | > 10 µM | > 10 µM | > 10 µM
22 | CCCOc1ccc(C(=O)Nc2cccc(Oc3ccnc(-c4cnn(C)c4)c3)c2)cc1 [Example 74, N-(3-(2-(1-Methyl-1H-pyrazol-4-yl)pyridin-4-yloxy)phenyl)-4-propoxybenzamide] | ≤ 10 µM | > 10 µM | > 10 µM
23 | CCCCOc1ccc(C(=O)Nc2cccc(Oc3ccnc(-c4cnn(C)c4)c3)c2)cc1 [Example 76, 4-Butoxy-N-(3-(2-(1-methyl-1H-pyrazol-4-yl)pyridin-4-yloxy)phenyl)benzamide] | ≤ 10 µM | ≤ 10 µM | > 10 µM
